Consider three compounds from article PMC10867458, “Depolymerization of actin filaments by Cucurbitacin I through binding G‐actin” (Food Science & Nutrition, 2023).

Like-named read-outs stand apart in the source and are kept apart here.

Assay [1] deals with T1, G-actin (rabbit skeletal muscle actin) (Oryctolagus cuniculus, UniProt P68135).
T1 construct: gene ACTA1
The assay is described as follows: pyrene-actin polymerization assay, […] (V50 […] vs control […]). Format: biochemical.

For assay [2], the target named is T1, G-actin (rabbit skeletal muscle actin). Description: differential scanning fluorimetry (SYPRO orange) with Kd; also pyrene-actin polymerization inhibition. Format: binding. Background: DSF heats the sample and reads unfolding from a dye or from intrinsic fluorescence.
The target is the same in assay [3]. Description: pyrene-actin polymerization assay, […] (V50 […] vs control […]). Format: biochemical. This is another data set of the same source.

For `C=C1[C@@H](C)[C@H]2[C@H](Cc3ccccc3)NC(=O)[C@]23[C@H](OC(C)=O)/C=C/[C@@](C)(O)C(=O)[C@@H](C)C/C=C/[C@H]3[C@@H]1O` [Cytochalasin D], the “V 50” value in assay [1] worked out at 77.59 ± 7776.
As a reminder, the Kd is the equilibrium constant for the complex coming apart. Read a high Kd as lower affinity. In the case of `CC(C)(O)/C=C/C(=O)[C@](C)(O)[C@H]1[C@H](O)C[C@@]2(C)[C@@H]3CC=C4[C@@H](C=C(O)C(=O)C4(C)C)[C@]3(C)C(=O)C[C@]12C` [CuI, Cucurbitacin I], the Kd in assay [2] was found to be 30 ± 2.5 nM.
Regarding `C/C1=C\[C@H](C)C[C@H](C)OC(=O)C[C@H](c2ccc(O)cc2)NC(=O)[C@@H](Cc2c(Br)[nH]c3ccccc23)N(C)C(=O)[C@H](C)NC(=O)[C@@H](C)C1` [Jasplakinolide], in assay [3], the “V 50” value is 54.7 ± 5114.
